Tests used:
[1] = tested on: L. mexicana infected macrophages; assay: Infected macrophage assay, L. mexicana; type: cell-based; conditions: for Macrophage IC50 L. mexicana: J774.G8 mouse macrophages, 72 hours, 33° C., number of infected macrophages inhibited by 50%
Method: The susceptibilities of L. mexicania infected macrophages to candidate compounds were determined by the following assay.
A one week old, confluent culture of J774.G8 mouse macrophages was washed three times with Hank's Balanced Salt Solution (HBSS) without calcium and magnesium (Sigma, St. Louis, Mo.). The J774.G8 mouse macrophages are a continuous cell line that have been cited in the literature as supporting continuous and intracellular growth of various Leishmania sp. and they have been used for drug assays against intracellular parasites, Trypanosoma cruzi and Leishmania sp. See Alcina, A., et al. (1988) Antimicrobial Agents & Chemotherapy. 32(9):1412-5; Mendez, S., et al. (1996) International Journal for Parasitology 26(6):619-22; Hodgkinson, V. H., et al. (1996) Experimental Parasitology 83(1):94-105; and Chang, K. P. (1980) Science 209(4462): 1240-42, which are herein incorporated by reference.
The macrophages were then incubated at 37° C. in a humidified 5% CO2 incubator for 15 minutes with a Trypsin-EDTA (0.05% Trypsin, 0.53 mM EDTA 4Na) solution (GIBCO BRL, Grand Island, N.Y.). The macrophages were then detached with a cell scraper and suspended by vigorous pipetting. The macrophages were then mixed with a late log phase culture of L. mexicana promastigotes to yield a solution comprising about 5×10^5 macrophages per ml and about 25×10^5 promastigotes per ml in DMEM (pH 7.4) supplemented with 10% heat inactivated fetal calf serum comprising penicillin (50 units/ml) and streptomycin (50 μg/ml).
The macrophage-parasite mixture was then pipetted into 96-well flat-bottom plates (Costar, Cambridge, Mass.) at 200 μl per well. Infection and attachment of the macrophages was allowed to occur over a period of about 48 hours at 33° C. in a humidified 5% CO2 incubator. The wells were washed three times with HBSS to remove extracellular parasites. Each well was then treated with serial dilutions of a given candidate compound in DMEM.
The treated plate was incubated for about 72 hours at 33° C. in a humidified 5% CO2 incubator. The macrophages in each well were detached into the DMEM used for the incubation by pipetting and scraping with the tip of a microliter pipettor. 75 μl of the cell suspension was transferred to a cytospin funnel and the cells were centrifuged onto microscope slides at 800 rpm for 5 minutes using a Cytospin centrifuge (Shandon, Pittsburgh, Pa.).
The slides were air dried and then fixed in methanol for 5 seconds. After the methanol evaporated, the slides were stained with 5% Giemsa stain (Fisher, Suwanee, Ga.) in phosphate buffer comprising 3.1 mM potassium phosphate dibasic and 8.3 mM sodium phosphate monobasic for 45 minutes. After thorough washing with flowing tap water, the slides were air dried and then viewed by oil immersion microscopy to determine percentage of infected cells. A cell was considered to be infected if it comprised one or more amastigote with a visible parasite nucleus and kinetoplast. Counting parasites and counting infected cells provided similar results when determining IC50 values.
The IC50 values (the concentration of the compound that inhibited the number of infected macrophages by 50%) were determined with the software program TableCurve (SPSS Science, Chicago, Ill.) using the following dose-response equation: y=a+b/(1+(x/c)^d), where x=the drug concentration, y=absorbance at 490 nm, a=upper asymptote, b=slope, c=IC50 and d=lower asymptote. FIG. 3 provides the graphical data obtained for compound 1DWB667 as an example.

[2] = tested on: L. donovani axenic amastigote-like parasites; assay: Axenic amastigote assay (CellTiter 96 tetrazolium dye growth assay); type: cell-based; conditions: 72 hours, 37° C., pH 5.5, concentration that inhibited parasite growth by 50%
Method: The growth susceptibilities of L. donovani axenic amastigote-like parasites to the candidate compounds were measured in a three day assay using the tetrazolium dye-based CellTiter 96 Aqueous Non-Radioactive Cell Proliferation Assay Kit (Promega, Madison, Wis.) according to Werbovetz, K., et al. (1999) Mol. Biochem. Parasitol. 98:53-65, which is herein incorporated by reference. Pentamidine, at a starting concentration of 100 μM, and serial dilutions thereof were used as controls. Specifically, L. donovani axenic amastigotes, as described by Joshi, M. et al. (1993) Mol. Biochem. Parasitol. 58:345-354, which is herein incorporated by reference, were seeded at 10^6 cells/ml in 96-well flat-bottomed plates (Costar, Cambridge, Mass.) and maintained as axenic amastigote-like forms by serial passage at 37° C. in a humid atmosphere comprising 5% CO2 using a slightly modified potassium-based version of the medium described by Joshi, M. et al. (1993) in the presence or absence of a given candidate compound. The medium comprised 15 mM KCl, […] KH2PO4, 10 mM K2HPO4, 0.5 mM MgSO4, and 24 mM NaHCO3 to give a final potassium concentration of […]. The medium was supplemented with 20% fetal bovine serum and was brought to pH 5.5. The final volume in each well was 60 μl. The plates were incubated at 37° C. for 72 hours, then 12 μl of the aqueous CellTiter solution from the kit (Promega, Madison, Wis.) was added to each well according to the instructions of the manufacturer. The plates were returned to the incubator for about 2 to about 3 hours. Then the absorbance of each well was measured at 490 nm using a SpectraMax Plus microplate reader (Molecular Devices, Sunnyvale, Calif.).
The results for each candidate compound may be found in the FIG. 1. The IC50 values (the concentration of the agent that inhibited parasite growth by 50%) for each candidate compound were determined for axenic amastigotes with the aid of the program SoftMax Pro (Molecular Devices, Sunnyvale, Calif.) using the following dose response equation: y=((a−d)/1+(x/c)^b)+d, wherein x=drug concentration; y=absorbance at 490 nm; a=upper asymptote; b=slope; c=IC50; and d=lower asymptote. FIG. 2 is the graphical data obtained for compound 1DWB667 as an example.

Substance	Macrophage IC50 L. mexicana [1] [µg/mL]	Axenic Amastigote IC50 L. donovani [2] [µg/mL]	Axenic Amastigote IC50 L. donovani ([2]; listed as DB702)	Macrophage IC50 L. mexicana ([1]; listed as DB710)	Axenic Amastigote IC50 L. donovani ([2]; listed as DB710)	reduction of parasite burden in L. mexicana infected macrophages (in words) ([1]; in vitro, cutaneous strain)	Macrophage IC50 L. mexicana ([1]; listed as DB667)	Macrophage IC50 L. mexicana ([1]; listed as DB709)	Axenic Amastigote IC50 L. donovani ([2]; listed as DB709)
2,5-Bis[2-methyl-4-(2-pyridylimino)aminophenyl]furan [DB 702]	0.220	0.174	about 0.2 μg/ml	–	–	–	–	–	–
2,5-Bis[2-methyl-4-(5-methyl-2-pyridylimino)aminophenyl]furan [DB 710]	0.094	0.242	–	about 0.1 μg/ml	about 0.2 μg/ml	–	–	–	–
2,5-Bis[2-chloro-4-(2-pyridylimino)aminophenyl]furan [DB 712]	0.689	0.308	–	–	–	least effective in reducing parasite burden	–	–	–
2,5-Bis[4-(2-pyridylimino)aminophenyl]furan [1DWB 667]	1.37	0.550	–	–	–	–	about 1.4 μg/ml	–	–
2,5-Bis[2-methoxy-4-(2-pyridylimino)aminophenyl]furan [DB 709]	0.127	0.157	–	–	–	–	–	about 0.1 μg/ml	about 0.2 μg/ml

Reference: patent US6706754B2, “Reversed amidines and methods of using for treating, preventing, or inhibiting leishmaniasis” (The United States of America as represented by the …, priority 2000, dated 2004)
